# Data taken from ChEMBL document CHEMBL1141823, “Malayenolides A-D, novel diterpenes from the indonesian sea pen veretillum malayense” (J Nat Prod, 1999).
# Assay: Toxicity against brine shrimp
# Type: organism-based
# Details: artemia, in vivo
row,Compound,LC50 [µg/mL]
1,CC(=O)O[C@H]1C[C@@H]2O[C@]2(C)[C@@H]2CC3=C(C)C(=O)O[C@H]3/C=C(/C)CC[C@H](OC(=O)C=C(C)C)[C@@]12C [MALAYENOLIDE D],20
2,CC(=O)O[C@H]1CC=C(C)[C@@H]2CC3=C(C)C(=O)O[C@H]3/C=C(/C)CC[C@H](OC(=O)c3ccccc3)[C@@]12C [MALAYENOLIDE A],100
3,CC(=O)O[C@H]1CC=C(C)[C@@H]2CC3=C(C)C(=O)O[C@H]3/C=C(/C)CC[C@H](OC(=O)C=C(C)C)[C@@]12C [MALAYENOLIDE C],20
4,CC(=O)O[C@H]1C[C@@H]2O[C@]2(C)[C@@H]2CC3=C(C)C(=O)O[C@H]3/C=C(/C)CC[C@H](OC(=O)c3ccccc3)[C@@]12C [MALAYENOLIDE B],< 2
